From patent US20250090614A1, “COMPOSITIONS AND METHODS FOR IMPROVING LUNG FUNCTION” (priority 2023, published 2025) come the findings set out here.

In one test the test system is old C57b1/6 mice. Nature of the test: Minute ventilation by whole-body plethysmography in aged mice. As to conditions: aged C57BL/6 mice, 25 mg/kg p.o. each substance, 90 days. The format is in vivo, mouse. On the procedure:
The experiments were performed in old C57b1/6 mice (28-30 weeks). Table 1 discloses the groups of mice used for the experimentation. C57BL/6 mice were bred and naturally aged in a pathogen-free colony. Mice were group-housed six per cage for the treatment regimen and maintained on a 12-hr light-dark schedule with ad libitum access to food and water. All experiments were designed according to the principles of animal use for gerontological research (Miller, R. A., & Nadon, N. L. (2000). Principles of animal use for gerontological research. Journals of Gerontology. Series A, Biological Sciences and Medical Sciences, 55, B117-B123) [table] The above test substances were administered to the mice for a period of 90 days. […] The respiratory muscle function in the study animals was assessed by estimating the Tidal Volume, Minute ventilation, Transdiaphragmatic pressure ([…]) and Respiratory rate. […] In the present study, ventilatory parameters were measured in awake mice during eupnoea (spontaneous breathing of room air) using a whole-body plethysmography system. […] Recordings were taken after 10 min of acclimatization and recorded for one hour. Recorded parameters included tidal volume and minute ventilation Minute ventilation-Minute ventilation is the amount of air inhaled or exhaled from a person's lungs in one minute is an important measurement that's related to tidal volume. […]

For the next test, the system named is Laminin. Description: Laminin ELISA in lung tissue supernatant of aged mice. The format is in vivo, mouse. As to conditions: aged C57BL/6 mice, 25 mg/kg p.o. each substance, 90 days. On the procedure:
The experiments were performed in old C57b1/6 mice (28-30 weeks). Table 1 discloses the groups of mice used for the experimentation. C57BL/6 mice were bred and naturally aged in a pathogen-free colony. Mice were group-housed six per cage for the treatment regimen and maintained on a 12-hr light-dark schedule with ad libitum access to food and water. All experiments were designed according to the principles of animal use for gerontological research (Miller, R. A., & Nadon, N. L. (2000). Principles of animal use for gerontological research. Journals of Gerontology. Series A, Biological Sciences and Medical Sciences, 55, B117-B123) [table] The above test substances were administered to the mice for a period of 90 days. Rapamycin was used as a positive control. After 90 days of administration experiments were performed to assess the respiratory muscle function, anatomical changes, cellular senescence and immunological changes. Hyperinflation of the lungs may occur with ageing along with destruction of lung parenchyma or loss of supporting structures within the lung parenchyma (Gillooly M, Lamb D. Airspace size in lungs of lifelong non-smokers: effect of age and sex. Thorax. 1993; 48:39-43). […] Laminin was measured using commercially available ELISA Kit (AbCam ELISA Kit) according to the user's manual provided. […]

Take `O=C(/C=C/c1ccc(O)c(O)c1)O[C@H](Cc1ccc(O)c(O)c1)C(=O)O` [Rosmarinic acid]: the minute ventilation entry in the test with old C57b1/6 mice (versus old mice control) is listed as “increase”. Moreover, the “minute ventilation, comparison between treatment groups” value with old C57b1/6 mice (Rapamycin 8 mg/kg p.o. positive control) is “better improvement than control, and Rapamycin”. The expression of laminin result in the test on Laminin was “increased”.
